This passage reports IC50 results from patent publication US20230151003A1, “COMPOUNDS AND METHODS OF USE” (Exelixis, Inc., priority 2020, published 2023).

Structures can show the parent of a compound that is named as a salt. Where only a bound is given, the exact number is not on record here.

A word on the IC50: it is the concentration that gives 50% inhibition. Higher therefore signals weaker potency in that assay.

For this assay, the target named is KDR (Homo sapiens, UniProt P35968). Put plainly: KDR autophosphorylation ELISA in HUVEC cells. It is filed as cell-based. The arrangement: endogenous in cells; host or cells: HUVEC (Lonza #C2519A). The settings on record: Table 3 Cellular Activities, VEGF165-stimulated, phospho-KDR ELISA. The gist of the method: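 Read-out: phospho-KDR ELISA on cell lysates, quantified against a phospho-KDR standard, normalised to VEGF-stimulated DMSO (100%) and unstimulated (0%) wells, IC50 by 4-parameter fit. Cells were 24 h serum-starved HUVEC given compound for 1 h, then 100 ng/mL VEGF165 for 5 min.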
Chain of KDR (P35968 20-1356): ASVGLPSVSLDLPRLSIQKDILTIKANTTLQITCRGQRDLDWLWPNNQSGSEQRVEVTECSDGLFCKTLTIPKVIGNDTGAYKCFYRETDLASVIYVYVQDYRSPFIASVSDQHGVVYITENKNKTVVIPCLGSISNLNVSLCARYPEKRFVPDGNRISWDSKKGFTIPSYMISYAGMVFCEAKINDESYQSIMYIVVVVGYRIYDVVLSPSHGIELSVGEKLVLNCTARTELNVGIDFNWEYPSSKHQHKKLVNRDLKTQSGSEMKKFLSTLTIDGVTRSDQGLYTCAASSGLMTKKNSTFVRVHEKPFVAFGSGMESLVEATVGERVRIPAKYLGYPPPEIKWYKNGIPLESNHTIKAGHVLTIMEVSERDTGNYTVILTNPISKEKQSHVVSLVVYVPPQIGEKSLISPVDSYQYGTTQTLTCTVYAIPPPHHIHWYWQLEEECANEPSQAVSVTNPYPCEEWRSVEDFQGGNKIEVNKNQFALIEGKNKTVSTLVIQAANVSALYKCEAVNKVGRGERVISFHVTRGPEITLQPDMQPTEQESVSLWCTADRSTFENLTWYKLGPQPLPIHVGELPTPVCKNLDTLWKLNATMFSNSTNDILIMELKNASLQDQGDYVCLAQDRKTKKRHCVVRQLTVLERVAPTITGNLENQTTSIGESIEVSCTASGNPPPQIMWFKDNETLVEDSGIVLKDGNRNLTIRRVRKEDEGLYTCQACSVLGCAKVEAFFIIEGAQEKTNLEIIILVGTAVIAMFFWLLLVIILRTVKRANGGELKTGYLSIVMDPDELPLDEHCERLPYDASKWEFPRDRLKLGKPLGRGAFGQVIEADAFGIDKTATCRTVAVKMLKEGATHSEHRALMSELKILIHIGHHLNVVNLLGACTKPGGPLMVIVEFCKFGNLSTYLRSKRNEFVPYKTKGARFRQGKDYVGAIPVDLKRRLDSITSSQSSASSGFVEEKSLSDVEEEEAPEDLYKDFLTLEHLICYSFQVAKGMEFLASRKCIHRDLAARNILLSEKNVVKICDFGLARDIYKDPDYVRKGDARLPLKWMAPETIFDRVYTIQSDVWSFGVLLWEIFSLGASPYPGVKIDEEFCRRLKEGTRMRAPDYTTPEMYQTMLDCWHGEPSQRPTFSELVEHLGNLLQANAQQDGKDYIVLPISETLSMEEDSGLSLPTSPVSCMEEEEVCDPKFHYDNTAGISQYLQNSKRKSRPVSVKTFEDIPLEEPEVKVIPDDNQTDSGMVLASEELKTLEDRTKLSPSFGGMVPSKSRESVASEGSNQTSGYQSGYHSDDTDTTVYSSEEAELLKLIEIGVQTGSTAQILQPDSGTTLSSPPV
With `COc1cnc2c(Oc3ccc(NC(=O)c4cn(CCF)c(C)c(-c5ccsc5)c4=O)cc3F)ccnc2c1` [Compound 330, 1-(2-Fluoroethyl)-N-[3-fluoro-4-[(7-methoxy-1,5-naphthyridin-4-yl)oxy]phenyl]-6-methyl-4-oxo-5-thiophen-3-ylpyridine-3-carboxamide], the 50% inhibitory concentration (IC50) was in the range of 300 to 1000 nM.

`COc1cc2nccc(Oc3ccc(NC(=O)c4cnc(C)c(-c5cc(C)nn5C)c4O)cc3F)c2nc1OC` [Compound 136, N-[4-[(6,7-Dimethoxy-1,5-naphthyridin-4-yl)oxy]-3-fluorophenyl]-5-(2,5-dimethylpyrazol-3-yl)-4-hydroxy-6-methylpyridine-3-carboxamide] displayed a 50% inhibitory concentration (IC50) not above 100 nM.

For the compound `COc1cnc2c(Oc3ccc(NC(=O)c4cnc(C)c(-c5cccs5)c4O)cc3F)ccnc2c1` [Compound 100, N-[3-Fluoro-4-[(7-methoxy-1,5-naphthyridin-4-yl)oxy]phenyl]-4-hydroxy-6-methyl-5-(2-thienyl)pyridine-3-carboxamide], the IC50 was not above 100 nM.

Take `COc1cc2nccc(Oc3cc(F)c(NC(=O)c4c(C)n(C)c(C)c(-c5ccco5)c4=O)cc3F)c2nc1OC` [Compound 163, N-[4-[(6,7-Dimethoxy-1,5-naphthyridin-4-yl)oxy]-2,5-difluorophenyl]-5-(furan-2-yl)-1,2,6-trimethyl-4-oxopyridine-3-carboxamide]: the half-inhibitory concentration (IC50) fell in the range of 300 to 1000 nM.

As to `COc1cc2nccc(Oc3ccc(NC(=O)c4c(C)ncc(-c5ccsc5)c4O)cc3F)c2nc1OC` [Compound 127, N-[4-[(6,7-Dimethoxy-1,5-naphthyridin-4-yl)oxy]-3-fluorophenyl]-4-hydroxy-2-methyl-5-thiophen-3-ylpyridine-3-carboxamide], the IC50 was not above 100 nM.

Consider `C=CCc1ccc(-c2c(C)ncc(C(=O)Nc3ccc(Oc4ccnc5cc(OC)c(OC)nc45)c(F)c3)c2O)o1` [Compound 155, N-[4-[(6,7-Dimethoxy-1,5-naphthyridin-4-yl)oxy]-3-fluorophenyl]-4-hydroxy-6-methyl-5-(5-prop-2-enylfuran-2-yl)pyridine-3-carboxamide], for which the IC50 was not above 100 nM.

In turn, `COc1cc2nccc(Oc3ccc(NC(=O)c4cc(Br)c(C)n(-c5ccc(F)cn5)c4=O)cc3F)c2nc1OC` [Compound 55, 5-Bromo-N-[4-[(6,7-dimethoxy-1,5-naphthyridin-4-yl)oxy]-3-fluorophenyl]-1-(5-fluoropyridin-2-yl)-6-methyl-2-oxopyridine-3-carboxamide] had a 50% inhibitory concentration (IC50) of 300 to 1000 nM.

Compound `COc1cc2nccc(Oc3ccc(NC(=O)c4cnc(C)c(-c5cncs5)c4O)cc3F)c2nc1OC` [Compound 141, N-[4-[(6,7-Dimethoxy-1,5-naphthyridin-4-yl)oxy]-3-fluorophenyl]-4-hydroxy-6-methyl-5-(1,3-thiazol-5-yl)pyridine-3-carboxamide] yielded an IC50 not above 100 nM.

In the case of `COc1cc2nccc(Oc3ccc(NC(=O)c4cn(CCF)c(C)c(-c5ccco5)c4=O)cc3F)c2nc1OC` [Compound 333, N-[4-[(6,7-Dimethoxy-1,5-naphthyridin-4-yl)oxy]-3-fluorophenyl]-1-(2-fluoroethyl)-5-(furan-2-yl)-6-methyl-4-oxopyridine-3-carboxamide], the IC50 was 100 to 300 nM.

Turning to `COc1cc2nccc(Oc3ccc(NC(=O)c4cnc(C)c(-c5nccs5)c4O)cc3F)c2nc1OC` [Compound 143, N-[4-[(6,7-Dimethoxy-1,5-naphthyridin-4-yl)oxy]-3-fluorophenyl]-4-hydroxy-6-methyl-5-(1,3-thiazol-2-yl)pyridine-3-carboxamide], the half-inhibitory concentration (IC50) is not above 100 nM.

In turn, `COc1cc2nccc(Oc3ccc(NC(=O)c4cnc(C)c(-c5ccc(C)o5)c4O)cc3F)c2nc1OC` [Compound 92, N-[4-[(6,7-Dimethoxy-1,5-naphthyridin-4-yl)oxy]-3-fluoro-phenyl]-4-hydroxy-6-methyl-5-(5-methyl-2-furyl)pyridine-3-carboxamide] registered an IC50 not above 100 nM.

In turn, `COc1cnc2c(Oc3ccc(NC(=O)c4c(C)n(C)c(C)c(-c5cccs5)c4=O)cc3)ccnc2c1` [Compound 165, N-[4-[(7-Methoxy-1,5-naphthyridin-4-yl)oxy]phenyl]-1,2,6-trimethyl-4-oxo-5-thiophen-2-ylpyridine-3-carboxamide] returned a half-maximal inhibitory concentration (IC50) of 300 to 1000 nM.

Compound `COc1cc2nccc(Oc3ccc(NC(=O)c4c(C)nc(C)c(-c5ccc(C(C)C)o5)c4O)cc3F)c2nc1OC` [Compound 148, N-[4-[(6,7-Dimethoxy-1,5-naphthyridin-4-yl)oxy]-3-fluorophenyl]-4-hydroxy-2,6-dimethyl-5-(5-propan-2-ylfuran-2-yl)pyridine-3-carboxamide] had a 50% inhibitory concentration (IC50) not above 100 nM.

For `COc1cnc2c(Oc3ccc(NC(=O)c4cnc(C)c(-c5ccco5)c4O)cc3F)ccnc2c1` [Compound 96, N-[3-Fluoro-4-[(7-methoxy-1,5-naphthyridin-4-yl)oxy]phenyl]-5-(2-furyl)-4-hydroxy-6-methyl-pyridine-3-carboxamide], the IC50 was not above 100 nM.

`COc1cc2nccc(Oc3ccc(NC(=O)c4cnc(C)c(-c5cscn5)c4O)cc3F)c2nc1OC` [Compound 142, N-[4-[(6,7-Dimethoxy-1,5-naphthyridin-4-yl)oxy]-3-fluorophenyl]-4-hydroxy-6-methyl-5-(1,3-thiazol-4-yl)pyridine-3-carboxamide]: the IC50 is not above 100 nM.

`COc1cc2nccc(Oc3ccc(NC(=O)c4cnc(C)c(-c5cnoc5)c4O)cc3F)c2nc1OC` [Compound 140, N-[4-[(6,7-Dimethoxy-1,5-naphthyridin-4-yl)oxy]-3-fluorophenyl]-4-hydroxy-6-methyl-5-(1,2-oxazol-4-yl)pyridine-3-carboxamide] showed an IC50 not above 100 nM.

`COc1cc2nccc(Oc3ccc(NC(=O)c4c(C)nc(C)c(-c5cc(C)nn5C)c4O)cc3F)c2nc1OC` [Compound 109, N-[4-[(6,7-Dimethoxy-1,5-naphthyridin-4-yl)oxy]-3-fluoro-phenyl]-5-(2,5-dimethylpyrazol-3-yl)-4-hydroxy-2,6-dimethyl-pyridine-3-carboxamide]: the IC50 was not above 100 nM.

Compound `COc1cnc2c(Oc3ccc(NC(=O)c4cnc(C)c(-c5ccsc5)c4O)cc3F)ccnc2c1` [Compound 98, N-[3-Fluoro-4-[(7-methoxy-1,5-naphthyridin-4-yl)oxy]phenyl]-4-hydroxy-6-methyl-5-(3-thienyl)pyridine-3-carboxamide] gave an IC50 not above 100 nM.

Compound `COc1ccc2nccc(Oc3ccc(NC(=O)c4cnc(C)c(-c5ccco5)c4O)cc3F)c2n1` [Compound 118, N-[3-Fluoro-4-[(6-methoxy-1,5-naphthyridin-4-yl)oxy]phenyl]-5-(furan-2-yl)-4-hydroxy-6-methylpyridine-3-carboxamide] displayed a concentration for half-maximal inhibition (IC50) not above 100 nM.

For `COc1cc2nccc(Oc3ccc(NC(=O)c4c(C)n(C)c(C)c(-c5cccs5)c4=O)cc3)c2nc1OC` [Compound 167, N-[4-[(6,7-Dimethoxy-1,5-naphthyridin-4-yl)oxy]phenyl]-1,2,6-trimethyl-4-oxo-5-thiophen-2-ylpyridine-3-carboxamide], the concentration for half-maximal inhibition (IC50) lay within 300 to 1000 nM.

Turning to `CCc1ccc(-c2c(C)nc(C)c(C(=O)Nc3ccc(Oc4ccnc5cc(OC)c(OC)nc45)c(F)c3)c2O)o1` [Compound 147, N-[4-[(6,7-Dimethoxy-1,5-naphthyridin-4-yl)oxy]-3-fluorophenyl]-5-(5-ethylfuran-2-yl)-4-hydroxy-2,6-dimethylpyridine-3-carboxamide], the IC50 was not above 100 nM.

In turn, `COc1cc2nccc(Oc3ccc(NC(=O)c4c(C)ncc(-c5cc(C)cs5)c4O)cc3F)c2nc1OC` [Compound 125, N-[4-[(6,7-Dimethoxy-1,5-naphthyridin-4-yl)oxy]-3-fluorophenyl]-4-hydroxy-2-methyl-5-(4-methylthiophen-2-yl)pyridine-3-carboxamide] yielded an IC50 not above 100 nM.

Regarding `C=C(C)c1ccc(-c2c(C)ncc(C(=O)Nc3ccc(Oc4ccnc5cc(OC)c(OC)nc45)c(F)c3)c2O)o1` [Compound 152, N-[4-[(6,7-Dimethoxy-1,5-naphthyridin-4-yl)oxy]-3-fluorophenyl]-4-hydroxy-6-methyl-5-(5-prop-1-en-2-ylfuran-2-yl)pyridine-3-carboxamide], the IC50 is not above 100 nM.

With `COc1cc2nccc(Oc3ccc(NC(=O)c4cnc(C)c(-c5ccc(C6CC6)o5)c4O)cc3F)c2nc1OC` [Compound 155A, 5-(5-Cyclopropylfuran-2-yl)-N-[4-[(6,7-dimethoxy-1,5-naphthyridin-4-yl)oxy]-3-fluorophenyl]-4-hydroxy-6-methylpyridine-3-carboxamide hydrochloride], the half-inhibitory concentration (IC50) is not above 100 nM.

`COc1cnc2c(Oc3ccc(NC(=O)c4cnc(C)c(-c5ccc(C)o5)c4O)cc3F)ccnc2c1` [Compound 97, N-[3-Fluoro-4-[(7-methoxy-1,5-naphthyridin-4-yl)oxy]phenyl]-4-hydroxy-6-methyl-5-(5-methyl-2-furyl)pyridine-3-carboxamide] came in with a 50% inhibitory concentration (IC50) not above 100 nM.

`COc1cc2nccc(Oc3ccc(NC(=O)c4c(C)nc(C)c(-c5cc(C)cs5)c4O)cc3F)c2nc1OC` [Compound 137, N-[4-[(6,7-Dimethoxy-1,5-naphthyridin-4-yl)oxy]-3-fluorophenyl]-4-hydroxy-2,6-dimethyl-5-(4-methylthiophen-2-yl)pyridine-3-carboxamide] came in with an IC50 not above 100 nM.

`COc1cc2nccc(Oc3ccc(NC(=O)c4c(C)nc(C)c(-c5ccoc5)c4O)cc3F)c2nc1OC` [Compound 112, N-[4-[(6,7-Dimethoxy-1,5-naphthyridin-4-yl)oxy]-3-fluoro-phenyl]-5-(3-furyl)-4-hydroxy-2,6-dimethyl-pyridine-3-carboxamide] gave a concentration for half-maximal inhibition (IC50) not above 100 nM.

With `COc1cnc2c(Oc3ccc(NC(=O)c4c(C)n(C)c(C)c(-c5cccs5)c4=O)cc3F)ccnc2c1` [Compound 166, N-[3-Fluoro-4-[(7-methoxy-1,5-naphthyridin-4-yl)oxy]phenyl]-1,2,6-trimethyl-4-oxo-5-thiophen-2-ylpyridine-3-carboxamide], the IC50 fell in the range of 300 to 1000 nM.
